For this experiment, the target named is USP7 (Homo sapiens (Human), UniProt Q93009). The experiment can be described thus: USP7 fluorescence polarisation (FP) biochemical assay, ubiquitin-Lys-TAMRA substrate. An outline of the steps: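 Full-length His6-USP7 (2.5 nM) incubated ± inhibitor (8-point dilutions, 200 to 0.1 μM before addition) in 50 mM HEPES pH 7.2, 150 mM NaCl, 0.5 mM EDTA, 5 mM DTT, 0.05% BSA, 0.05% CHAPS. Ubiquitin-Lys-TAMRA cleavage followed by FP (ex 530/em 575 nm) every 15 min for 1.5 h; normalised to no-compound control.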

[1] abbreviates: Table 4, biochemical assay, average of at least duplicate experiments, read-out: USP7 IC50.

21 molecules from patent US10766903B2 (ALMAC DISCOVERY LIMITED, priority 2016, dated 2020) can be followed below.

Where two headings read alike, the source gives them in different places.

A word on the IC50: it is the concentration needed to halve the response being measured.

Chain of USP7 (Q93009 whole entry): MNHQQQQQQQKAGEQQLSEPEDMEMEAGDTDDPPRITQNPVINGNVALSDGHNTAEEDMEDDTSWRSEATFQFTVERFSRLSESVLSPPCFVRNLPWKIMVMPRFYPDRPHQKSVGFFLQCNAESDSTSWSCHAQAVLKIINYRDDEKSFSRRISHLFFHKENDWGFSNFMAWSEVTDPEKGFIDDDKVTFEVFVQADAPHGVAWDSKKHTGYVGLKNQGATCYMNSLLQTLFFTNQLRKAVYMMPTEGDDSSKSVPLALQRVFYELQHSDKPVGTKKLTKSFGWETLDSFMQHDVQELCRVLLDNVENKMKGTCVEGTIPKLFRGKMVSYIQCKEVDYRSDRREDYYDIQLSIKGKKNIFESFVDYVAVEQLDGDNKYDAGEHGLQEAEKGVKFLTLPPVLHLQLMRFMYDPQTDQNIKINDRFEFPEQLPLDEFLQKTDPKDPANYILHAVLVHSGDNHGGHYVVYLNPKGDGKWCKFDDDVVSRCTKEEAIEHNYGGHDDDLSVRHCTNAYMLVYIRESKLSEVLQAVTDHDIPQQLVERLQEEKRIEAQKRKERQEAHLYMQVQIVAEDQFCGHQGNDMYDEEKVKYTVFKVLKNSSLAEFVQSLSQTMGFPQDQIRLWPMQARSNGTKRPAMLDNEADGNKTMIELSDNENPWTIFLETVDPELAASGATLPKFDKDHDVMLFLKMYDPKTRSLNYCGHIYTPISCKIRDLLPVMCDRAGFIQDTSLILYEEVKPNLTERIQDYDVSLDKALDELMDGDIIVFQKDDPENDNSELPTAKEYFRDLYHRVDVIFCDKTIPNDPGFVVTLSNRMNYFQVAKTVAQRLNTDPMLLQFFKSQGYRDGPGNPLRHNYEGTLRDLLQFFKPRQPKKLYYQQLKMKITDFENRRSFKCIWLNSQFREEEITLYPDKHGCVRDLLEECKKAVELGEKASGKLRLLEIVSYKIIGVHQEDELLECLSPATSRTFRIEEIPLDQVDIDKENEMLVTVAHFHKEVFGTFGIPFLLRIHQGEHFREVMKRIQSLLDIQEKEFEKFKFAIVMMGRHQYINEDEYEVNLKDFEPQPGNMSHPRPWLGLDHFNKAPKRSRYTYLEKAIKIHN

For the molecule `C[C@H](CC(=O)N1CCC(O)(Cn2cnc(-c3cnn(CCN(C)C)c3)cc2=O)CC1)c1ccccc1` [Example 54, (R)-6-(1-(2-(Dimethylamino)ethyl)-1H-pyrazol-4-yl)-3-((4-hydroxy-1-(3-phenylbutanoyl)piperidin-4-yl)methyl)pyrimidin-4(3H)-one, Formic Acid], under “USP7 IC50, Table 4, biochemical assay, average of at least duplicate experiments”, the IC50 was 250 to 999 nM.

As to `CC1(C(=O)N2CCC(O)(Cn3cnc4c(cc(Cl)n4-c4ccc(C5CC5)cc4)c3=O)CC2)CC1` [Example 220, 6-Chloro-7-(4-cyclopropylphenyl)-3-((4-hydroxy-1-(1-methylcyclopropanecarbonyl)piperidin-4-yl)methyl)-3H-pyrrolo[2,3-d]pyrimidin-4(7H)-one], under setting [1], the IC50 is less than 250 nM.

`C[C@H](CC(=O)N1CCC(O)(Cn2cnc3c(C#CCO)n(C)nc3c2=O)CC1)c1ccccc1` [Example 31, (R)-6-((4-Hydroxy-1-(3-phenylbutanoyl)piperidin-4-yl)methyl)-3-(3-hydroxyprop-1-yn-1-yl)-2-methyl-2H-pyrazolo[4,3-d]pyrimidin-7(6H)-one]: the IC50 under setting [1] was less than 250 nM.

On to `COc1cc(-n2c(Cl)cc3c(=O)n(CC4(O)CCN(C(=O)c5cnc(C6CC6)o5)CC4)cnc32)ccc1F` [Example 206, 6-Chloro-3-((1-(2-cyclopropyloxazole-5-carbonyl)-4-hydroxypiperidin-4-yl)methyl)-7-(4-fluoro-3-methoxyphenyl)-3H-pyrrolo[2,3-d]pyrimidin-4(7H)-one], for which, under setting [1], the IC50 is less than 250 nM.

With `C[C@H](CC(=O)N1CCC(O)(Cn2cnc(N[C@@H]3CCCC[C@@H]3N)cc2=O)CC1)c1ccccc1` (racemic) [Example 64, 6-(((±-cis-1,2)-2-Aminocyclohexyl)amino)-3-((4-hydroxy-1-((R)-3-phenylbutanoyl)piperidin-4-yl)methyl)pyrimidin-4(3H)-one, Formic Acid], the IC50 under setting [1] was 250 to 999 nM.

`Cn1nc2c(=O)n(CC3(O)CCN(C(=O)C4(C)CC4)CC3)cnc2c1-c1ccccc1` [Example 191, 6-((4-Hydroxy-1-(1-methylcyclopropanecarbonyl)piperidin-4-yl)methyl)-2-methyl-3-phenyl-2H-pyrazolo[4,3-d]pyrimidin-7(6H)-one]: under setting [1], the 50% inhibitory concentration (IC50) was 1000 to 200000 nM.

As to `C[C@H](CC(=O)N1CCC(O)(Cn2cnc(NCCN3CCC[C@@H]3C)cc2=O)CC1)c1ccccc1` [Example 69, 3-((4-Hydroxy-1-((R)-3-phenylbutanoyl)piperidin-4-yl)methyl)-6-((2-((S)-2-methylpyrrolidin-1-yl)ethyl)amino)pyrimidin-4(3H)-one, Formic Acid], under setting [1], the IC50 is less than 250 nM.

For `CC1(C(=O)N2CCC(O)(Cn3cnc4c(cc(Cl)n4-c4ccc(F)cc4)c3=O)CC2)CC1` [Example 204, 6-Chloro-7-(4-fluorophenyl)-3-((4-hydroxy-1-(1-methylcyclopropanecarbonyl)piperidin-4-yl)methyl)-3H-pyrrolo[2,3-d]pyrimidin-4(7H)-one], under setting [1], the IC50 is less than 250 nM.

With `C[C@H](CC(=O)N1CCC(O)(Cn2cnc(N3CCC(F)(F)CC3)cc2=O)CC1)c1ccccc1` [Example 160, (R)-6-(4,4-difluoropiperidin-1-yl)-3-((4-hydroxy-1-(3-phenylbutanoyl)piperidin-4-yl)methyl)pyrimidin-4(3H)-one], under setting [1], the IC50 was 1000 to 200000 nM.

Consider `C[C@H](CC(=O)N1CCC(O)(Cn2cnc3c(-c4cccc(CN5CCOCC5)c4)n(C)nc3c2=O)CC1)c1ccccc1` [Example 108, (R)-6-((4-Hydroxy-1-(3-phenylbutanoyl)piperidin-4-yl)methyl)-2-methyl-3-(3-(morpholinomethyl)phenyl)-2H-pyrazolo[4,3-d]pyrimidin-7(6H)-one], for which the IC50 is 250 to 999 nM.

`C[C@H]1CCN(CCNc2cc(=O)n(CC3(O)CCN(C(=O)C[C@@H](C)c4ccccc4)CC3)cn2)C1` [Example 71, 3-((4-Hydroxy-1-((R)-3-phenylbutanoyl)piperidin-4-yl)methyl)-6-((2-((S)-3-methylpyrrolidin-1-yl)ethyl)amino)pyrimidin-4(3H)-one, Formic Acid]: under setting [1], the IC50 is less than 250 nM.

Regarding `C[C@H](CC(=O)N1CCC(O)(Cn2cnc(N[C@@H]3CCNC3)cc2=O)CC1)c1ccccc1` [Example 110, 3-((4-Hydroxy-1-((R)-3-phenylbutanoyl)piperidin-4-yl)methyl)-6-(((R)-pyrrolidin-3-yl)amino)pyrimidin-4(3H)-one], the IC50 under setting [1] was 250 to 999 nM.

For `C[C@@H](N)c1ccc(-c2c3ncn(CC4(O)CCN(C(=O)C[C@H](c5ccccc5)C(F)(F)F)CC4)c(=O)c3nn2C)cc1` [Example 75, 3-(4-((R)-1-Aminoethyl)phenyl)-6-((4-hydroxy-1-((R)-4,4,4-trifluoro-3-phenylbutanoyl)piperidin-4-yl)methyl)-2-methyl-2H-pyrazolo[4,3-d]pyrimidin-7(6H)-one], the IC50 under setting [1] is less than 250 nM.

For `C[C@H](CC(=O)N1CCC(O)(Cn2cnc(N3CC[C@H](N)C3)cc2=O)CC1)c1ccccc1` [Example 12, 6-((S)-3-Aminopyrrolidin-1-yl)-3-((4-hydroxy-1-((R)-3-phenylbutanoyl)piperidin-4-yl)methyl)pyrimidin-4(3H)-one], the IC50 under setting [1] was less than 250 nM.

`C[C@H](CC(=O)N1CCC(O)(Cn2cnc(N(CCO)Cc3cccnc3)cc2=O)CC1)c1ccccc1` [Example 177, (R)-3-((4-hydroxy-1-(3-phenylbutanoyl)piperidin-4-yl)methyl)-6-((2-hydroxyethyl)(pyridin-3-ylmethyl)amino)pyrimidin-4(3H)-one]: the IC50 under setting [1] fell in the range of 1000 to 200000 nM.

With `C[C@H](CC(=O)N1CCC(O)(Cn2cnc3c(nnn3-c3ccccc3)c2=O)CC1)c1ccccc1` [Example 185, (R)-6-((4-Hydroxy-1-(3-phenylbutanoyl)piperidin-4-yl)methyl)-3-phenyl-3H-[1,2,3]triazolo[4,5-d]pyrimidin-7(6H)-one], the IC50 under setting [1] was less than 250 nM.

In the case of `C[C@H](CC(=O)N1CCC(O)(Cn2cnc(NC3CCOC3)cc2=O)CC1)c1ccccc1` (stereo partly drawn) [Example 151, 3-((4-hydroxy-1-((R)-3-phenylbutanoyl)piperidin-4-yl)methyl)-6-((tetrahydrofuran-3-yl)amino)pyrimidin-4(3H)-one], the half-maximal inhibitory concentration (IC50) under setting [1] is 1000 to 200000 nM.

With `C[C@H](CC(=O)N1CCC(O)(Cn2cnc(/C=C/CN3CC[C@H](N)C3)cc2=O)CC1)c1ccccc1` [Example 56, 6-((E)-3-((S)-3-Aminopyrrolidin-1-yl)prop-1-en-1-yl)-3-((4-hydroxy-1-((R)-3-phenylbutanoyl)piperidin-4-yl)methyl)pyrimidin-4(3H)-one, Formic Acid], the IC50 under setting [1] lay within 1000 to 200000 nM.

On to `C[C@H](CC(=O)N1CCC(O)(Cn2cnc(NCCN3CCCCC3)cc2=O)CC1)c1ccccc1` [Example 52, (R)-3-((4-Hydroxy-1-(3-phenylbutanoyl)piperidin-4-yl)methyl)-6-((2-(piperidin-1-yl)ethyl)amino)pyrimidin-4(3H)-one], for which the IC50 under setting [1] is less than 250 nM.

`C[C@H](CC(=O)N1CCC(O)(Cn2cnc(N3CCC(c4ccn[nH]4)CC3)cc2=O)CC1)c1ccccc1` [Example 156, (R)-6-(4-(1H-pyrazol-5-yl)piperidin-1-yl)-3-((4-hydroxy-1-(3-phenylbutanoyl)piperidin-4-yl)methyl)pyrimidin-4(3H)-one]: the IC50 under setting [1] lay within 1000 to 200000 nM.

As for `C[C@H](CC(=O)N1CCC(O)(Cn2cnc(NC[C@@H]3CCCN3C)cc2=O)CC1)c1ccccc1` [Example 66, 3-((4-Hydroxy-1-((R)-3-phenylbutanoyl)piperidin-4-yl)methyl)-6-((((S)-1-methylpyrrolidin-2-yl)methyl)amino)pyrimidin-4(3H)-one, Formic Acid], the IC50 under setting [1] was 1000 to 200000 nM.
